Several values for one entry are separate records, joined by “and”; a condition that tells them apart may be missing. Identical values can stand only once.
Target: T1, human rChAT (Homo sapiens, UniProt P28329)
T1 construct: made in house; host or cells: E. coli BL21 Rosetta2
T1 sequence (P28329 1-630 isoform P28329-3): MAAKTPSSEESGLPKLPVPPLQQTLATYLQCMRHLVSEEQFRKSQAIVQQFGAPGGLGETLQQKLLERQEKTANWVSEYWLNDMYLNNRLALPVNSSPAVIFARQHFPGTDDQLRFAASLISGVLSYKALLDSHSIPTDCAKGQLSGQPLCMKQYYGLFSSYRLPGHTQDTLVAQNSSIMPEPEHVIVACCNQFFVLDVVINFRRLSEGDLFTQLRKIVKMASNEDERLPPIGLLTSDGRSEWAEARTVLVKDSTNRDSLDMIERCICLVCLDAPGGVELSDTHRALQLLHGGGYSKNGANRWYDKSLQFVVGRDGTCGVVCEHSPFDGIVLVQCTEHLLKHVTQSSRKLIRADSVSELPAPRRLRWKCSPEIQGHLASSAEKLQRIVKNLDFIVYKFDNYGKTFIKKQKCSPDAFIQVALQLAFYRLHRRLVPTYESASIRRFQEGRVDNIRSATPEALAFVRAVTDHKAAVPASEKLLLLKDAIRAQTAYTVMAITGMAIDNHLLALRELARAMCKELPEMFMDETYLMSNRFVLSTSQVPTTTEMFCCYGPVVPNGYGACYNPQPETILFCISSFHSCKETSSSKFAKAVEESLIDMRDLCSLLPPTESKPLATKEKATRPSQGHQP
Test: In vitro ChAT activity inhibition fluorometric assay and kinetic studies
Assay type: biochemical
Settings: for mode of inhibition of human rChAT: Lineweaver-Burk plot and nonlinear regression fit; for Vmax of rChAT: inhibitor 0.4 µM, mean ± SEM of two experiments; for Ki / IC50: mean of two experiments; for IC50: substrate concentrations 20 to 80 µM
Description: ChAT activity was measured using our newly developed fluorometric assay, using human recombinant ChAT (rChAT) protein. The reagents, choline chloride, acetyl coenzyme-A (ACoA, A2181) and 7-Diethylamino-3-(4-maleimidophenyl)-4-methylcoumarin (CPM) were purchased from Sigma-Aldrich (St. Louis, MO, USA).
The ChAT assay could be run in either 96-well or 384-well plates. For 96-well plates, 50 μL/well of 0.212 µg/ml (final concentration) of the recombinant ChAT was incubated with 100 μM different Asinex compounds (50 μL/well) for 10–30 minutes at room temperature in dilution buffer (10 mM Tris-HCl, pH 7.4, 150 mM NaCl, 1.0 mM EDTA, 0.05% (v/v) Triton X-100). Then, 50 µL of a cocktail-A [dilution buffer containing choline chloride (final concentration 150 µM), ACoA (final concentration 13.3 µM) and CPM (final concentration 15 µM)] was added to each well. Immediately after adding the cocktail-A, the changes in fluorescence was monitored kinetically at 479 nm after exciting at 390 nm at 1–2 minute intervals for 15–20 minutes using a microplate spectrophotometer reader (Infinite M1000, Tecan).
Each Asinex compounds were run in triplicates. On each 96-wells plate, several enzyme wells without inhibitor were also included during measurements as control and for estimating the inhibition level. Negative controls were wells without enzyme. The percentage inhibition for each Asinex compound was calculated based on the enzyme control value as a reference (100% activity). The compounds showing over 50% inhibition of enzyme activity were selected for further kinetic studies.
For kinetic studies, a similar protocol as inhibition assay was followed; a dilution series of five different concentrations ranging from 10^−6 to 10^−9 M were prepared for each selected Asinex compounds. For ChAT, the A-CoA was kept constant at 10 μM (final) but the concentration of choline chloride varied between 320–10 μM. For BuChE, BTC was used as the substrate in the concentrations ranging from 0.0625 to 2 mM. For AChE, ATC was used as the substrate in the concentrations ranging from 0.0312 to 1 mM. Each compound concentration was measured in duplicates. The rate of enzyme activity (as ∆OD/hr kinetic data) was calculated and processed using the GraphPad Prism 7 analysis software. The inhibitory constant (Ki) values were determined from the dose-response curve and the half-maximal inhibitory concentration (IC50) values were calculated by plotting the percentage enzyme activity vs. the log of the Asinex compound concentrations and fitting the data using the nonlinear regression Enzyme Kinetics-Inhibition function.
The Michaelis-Menten constant (Km) and maximal velocity (Vmax) values were calculated from substrate-velocity curve after fitting the data with non-linear regression Michaelis-Menten kinetic function. The Km and Vmax values were further used to plot the Lineweaver-Burk plots; the plots were fitted using linear regression function.

| Structure (SMILES) | mode of inhibition of human rChAT | Vmax of rChAT [µM/min] | Ki | IC50 | inhibition at 100 µM (100 µM compound, compared to control, mean of three experiments in triplicate, read-out: ChAT % IR (inhibition rate)) [%] |
| --- | --- | --- | --- | --- | --- |
| CC(C)NC(=O)C1CCN(C(=O)c2csc(Nc3cccc4ccccc34)n2)CC1 [Compound B4] | mixed-model type inhibition | 239.0 ± 21.4 | 11.9 µM | ~16.5 µM and 16.5 µM | – |
| CC(C)c1ccc(C(=O)CSc2n[nH]c(-c3ccco3)n2)cc1 [Compound E1] | mixed-model inhibition | 276.1 ± 12.1 | ~15.2 µM and 15.2 µM | ~25.4 µM and 25.4 µM | > 50 |
